Data as given in US6818617B1 (Temple University- Of The Commonwealth System of Higher …, priority 1997, dated 2004).
Where two headings read alike, the source gives them in different places. Where a SMILES comes first, the peptide text is derived from it. Bridges are numbered along the chain shown (N, C = ends). Where no end group is shown, it is not given here.

Experiments:
α4β1 [1] = target: T1, α4β1 (Homo sapiens, UniProt P05556+P13612); test: Jurkat cell adhesion to immobilized VCAM-1; type: cell-based
T1 construct: host or cells: Jurkat
Method: (§1) Adhesion of cultured cells labeled with 5-chloromethylfluorescein diacetate (CMFDA) was performed as described earlier (Marcinkiewicz et al., Blood 90:1565-1575 (1997)). […] Wells were blocked by 1% BSA in HBSS buffer. Cells were labeled with fluorescein by incubation with 12.5 AM CMFDA in HBSS buffer containing 1% BSA at 37° C. by 15 min. Unbound label was removed by washing with the same buffer. Labeled cells (1×10^5 per sample) were added to the well in the presence or absence of inhibitors and incubated at 37° C. for 30 min. Unbound cells were removed by aspiration, the wells were washed and bound cells were lysed by adding 0.5% Triton X-100. In parallel the standard curve was prepared in the same plate from known concentrations of labelled cells. The plate was read using a Cytofluor 2350 fluorescence plate reader (Millipore, Bedford, Mass.) at 485 nm EX(excitation) filter and 530 nm (emmision) filter.
The cell adhesion assay (as described in Example 1) was used to study the inhibitory effect of the eluted fractions on Jurkat cell adhesion to immobilized VCAM-1 and on K562 cell adhesion to fibronectin. Recombinant VCAM-1 (0.5 μg/well) or fibronectin (0.5 μg/well) were immobilized overnight at 4° C. on a 96-well plate (Falcon) in PBS buffer. After blocking, the CMFDA-labeled cells were added to each well in the presence of 5 μg per sample of protein from selected fractions.
Recombinant human VCAM-1 (0.5 μg/well) was immobilized in the wells of an ELISA plate overnight in PBS buffer. The plate was blocked using HBSS buffer containing 1% BSA. […] The plate was incubated for 30 minutes at 37° C. Unbound cells were removed by aspiration and the wells were washed with HBSS buffer.
(§2) The effect of each peptide on cell adhesion was determined as described above. […] Cells that attached to the plates were lysed with detergent, and fluorescence intensity was measured. Percent inhibition was measured at each concentration and IC50 was determined.

α4β7 = target: T2, α4β7 (Homo sapiens, UniProt P13612+P26010); test: RPMI 8866 cell adhesion to MadCAM-1; type: cell-based; conditions: RPMI 8866 cells, α4β7, ligand MadCAM-1
T2 construct: endogenous in cells; host or cells: JY cells (A11); RPMI 8866 cells (A12)
Method: as §1, §2

α4β1 [2] = target: T3, α4β1 (UniProt G3HZ55+P13612); test: α4B2 (CHOα4+/α5−) cell adhesion to immobilized VCAM-1; type: cell-based, human; design: expressed in transfected cells; host or cells: B2 CHO cells (α5-deficient), gift of Dr. Y. Takada; conditions: α4B2 (CHOα4+/α5−) cells, ligand VCAM-1
Method: as §1
Chinese hamster ovary cells transfected with human α4 integrin were provided by Dr. Y. Takada (Scripps Research Institute, La Jolla, Calif.). […] The bound cells were lysed with 0.5% Triton X-100, and fluorescence was measured.
as §2

αIIbβ3 [3] = target: T4, αIIbβ3 (Homo sapiens, UniProt P05106+P08514); test: A5 (CHOαIIbβ3+) cell adhesion to immobilized fibrinogen; type: cell-based; conditions: A5 (CHOαIIbβ3+) cells, ligand Fg
Method: as §1, §2

αIIbβ3 [4] = target: T4, αIIbβ3; test: ADP-induced platelet aggregation in platelet rich plasma (ADP PA); type: cell-based; design: endogenous in cells; host or cells: platelets in platelet rich plasma; conditions: Platelets, αIIbβ3, ligand Fg, 30 μM ADP
Method: (§3) Blood from a healthy donor was collected into a syringe containing sodium citrate as an anticoagulant. The anticoagulated blood was centrifuged at 400 g for 17 minutes, and platelet rich plasma (PRP) was removed by aspiration.

α4β1 and α4β7 integrins = test: Panel of α4 integrin cell adhesion assays; type: cell-based; conditions: at 10 μM
Method: as §1, §2

α4β1 [5] = target: T3, α4β1; test: A2 (CHOα4+) cell adhesion to immobilized VCAM-1; type: cell-based, human; design: expressed in transfected cells; host or cells: CHO (A2 cells, α4+ α5+), gift of Dr. Y. Takada; conditions: A2 (CHOα4+) cells, ligand VCAM-1
Method: as §1, §2

[6] = system: lymphocyte infiltration of pancreatic Langerhans islets; test: Lymphocyte infiltration of Langerhans islets in Non Obese Diabetic (NOD) mice; type: in vivo, mouse; conditions: for effect on lymphocyte infiltration in pancreatic islets of NOD mice (in words): i.p. three times per week, nine weeks
Method: Female NOD mice from […] of age were purchased from Jackson Laboratory (Bar Harbor, Me.).
After nine weeks of treatment the animals were sacrificed by exposure to CO2. The pancreas was removed, frozen, and stored at −70° C. until the histological analysis. For the histological analysis, five μm sections of frozen tissue were fixed with acetone. For detection of infiltrating lymphocytes, the sections were stained with hematoxylin/eosin, and observed by light microscopy.

α5β1 = target: T5, α5β1 (Homo sapiens, UniProt P05556+P08648); test: K562 cell adhesion to immobilized fibronectin; type: cell-based; conditions: 5 μg per sample of protein from fraction
T5 construct: host or cells: K562
T5 sequence (P08648 42-894 limits assumed): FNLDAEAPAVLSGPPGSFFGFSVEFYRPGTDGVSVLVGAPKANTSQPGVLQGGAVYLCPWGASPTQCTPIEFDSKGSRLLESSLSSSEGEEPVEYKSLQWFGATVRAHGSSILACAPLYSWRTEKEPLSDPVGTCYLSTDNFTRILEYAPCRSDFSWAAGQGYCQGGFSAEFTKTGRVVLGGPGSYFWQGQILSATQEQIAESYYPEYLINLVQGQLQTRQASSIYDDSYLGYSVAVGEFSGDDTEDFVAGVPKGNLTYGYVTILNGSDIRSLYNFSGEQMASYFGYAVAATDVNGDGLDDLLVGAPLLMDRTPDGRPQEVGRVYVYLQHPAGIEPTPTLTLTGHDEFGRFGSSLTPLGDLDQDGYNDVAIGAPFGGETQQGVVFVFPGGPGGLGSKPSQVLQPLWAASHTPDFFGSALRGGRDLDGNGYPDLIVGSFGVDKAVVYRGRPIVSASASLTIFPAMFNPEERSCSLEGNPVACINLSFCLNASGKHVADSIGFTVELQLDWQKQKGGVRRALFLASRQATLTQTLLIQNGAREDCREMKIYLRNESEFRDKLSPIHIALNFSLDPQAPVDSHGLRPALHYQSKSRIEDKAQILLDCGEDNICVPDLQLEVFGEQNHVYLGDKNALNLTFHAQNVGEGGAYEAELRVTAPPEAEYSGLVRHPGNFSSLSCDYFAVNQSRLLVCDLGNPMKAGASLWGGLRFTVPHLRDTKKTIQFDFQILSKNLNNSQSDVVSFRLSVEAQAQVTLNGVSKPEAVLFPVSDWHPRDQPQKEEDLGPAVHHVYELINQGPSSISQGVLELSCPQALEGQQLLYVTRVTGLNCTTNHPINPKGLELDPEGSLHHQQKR
T5 sequence (P08648 895-1049 partner limits assumed): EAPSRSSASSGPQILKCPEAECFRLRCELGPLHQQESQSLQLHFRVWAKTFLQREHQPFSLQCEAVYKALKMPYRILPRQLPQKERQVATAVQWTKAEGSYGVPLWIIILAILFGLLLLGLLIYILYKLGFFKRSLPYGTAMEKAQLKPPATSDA
T5 sequence (P05556 21-798): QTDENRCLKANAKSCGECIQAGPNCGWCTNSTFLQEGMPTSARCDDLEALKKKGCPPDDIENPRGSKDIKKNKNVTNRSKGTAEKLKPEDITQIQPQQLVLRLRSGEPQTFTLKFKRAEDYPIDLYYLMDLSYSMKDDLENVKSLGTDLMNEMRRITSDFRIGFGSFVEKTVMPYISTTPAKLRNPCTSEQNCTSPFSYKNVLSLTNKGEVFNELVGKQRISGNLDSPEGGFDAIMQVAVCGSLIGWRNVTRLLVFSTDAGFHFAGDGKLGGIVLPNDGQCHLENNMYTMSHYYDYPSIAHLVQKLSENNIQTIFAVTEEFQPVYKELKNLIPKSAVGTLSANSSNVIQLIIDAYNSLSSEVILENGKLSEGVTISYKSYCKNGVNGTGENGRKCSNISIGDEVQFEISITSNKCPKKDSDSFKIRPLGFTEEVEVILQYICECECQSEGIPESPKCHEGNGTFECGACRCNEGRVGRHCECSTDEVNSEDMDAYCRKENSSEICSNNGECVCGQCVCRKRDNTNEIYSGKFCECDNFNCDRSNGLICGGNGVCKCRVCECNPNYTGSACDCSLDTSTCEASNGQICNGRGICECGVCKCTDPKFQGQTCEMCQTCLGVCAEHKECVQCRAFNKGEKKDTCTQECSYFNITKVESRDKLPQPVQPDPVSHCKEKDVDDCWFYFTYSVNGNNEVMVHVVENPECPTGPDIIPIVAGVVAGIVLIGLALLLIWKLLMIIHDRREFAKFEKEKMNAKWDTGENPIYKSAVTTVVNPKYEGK
Method: as §1

αvβ3 = target: T6, αvβ3 (Homo sapiens, UniProt P05106+P06756); test: VNRC3 (CHOαvβ3+) cell adhesion to immobilized vitronectin; type: cell-based; conditions: VNRC3 (CHOαvβ3+) cells, ligand Vn
T6 construct: expressed in transfected cells; host or cells: CHO (VNRC3 cells), gift of Dr. M. Ginsberg
T6 sequence (P06756 31-889 limits assumed): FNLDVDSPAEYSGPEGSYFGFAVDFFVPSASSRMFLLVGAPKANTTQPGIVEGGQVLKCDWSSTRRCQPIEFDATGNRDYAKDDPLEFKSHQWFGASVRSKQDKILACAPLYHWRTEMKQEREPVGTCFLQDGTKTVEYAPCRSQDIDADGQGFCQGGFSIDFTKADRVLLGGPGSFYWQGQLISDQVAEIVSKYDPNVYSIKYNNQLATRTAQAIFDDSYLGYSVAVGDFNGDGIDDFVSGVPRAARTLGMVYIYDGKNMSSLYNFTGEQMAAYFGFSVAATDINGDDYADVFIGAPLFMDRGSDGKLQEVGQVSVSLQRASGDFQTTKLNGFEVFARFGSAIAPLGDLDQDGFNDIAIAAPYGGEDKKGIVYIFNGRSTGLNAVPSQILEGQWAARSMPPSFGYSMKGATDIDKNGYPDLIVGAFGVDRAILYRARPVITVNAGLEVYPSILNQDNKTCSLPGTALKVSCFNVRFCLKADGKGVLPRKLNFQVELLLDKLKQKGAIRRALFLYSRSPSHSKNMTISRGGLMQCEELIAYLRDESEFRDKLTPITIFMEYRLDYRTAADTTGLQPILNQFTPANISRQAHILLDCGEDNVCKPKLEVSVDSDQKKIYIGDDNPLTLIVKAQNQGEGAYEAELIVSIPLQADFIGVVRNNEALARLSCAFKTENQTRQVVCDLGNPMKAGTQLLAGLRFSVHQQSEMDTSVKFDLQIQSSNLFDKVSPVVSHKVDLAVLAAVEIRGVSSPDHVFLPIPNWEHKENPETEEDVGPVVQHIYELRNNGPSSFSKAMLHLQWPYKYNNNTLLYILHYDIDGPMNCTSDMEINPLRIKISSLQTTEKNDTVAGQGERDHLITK
T6 sequence (P06756 891-1048 partner limits assumed): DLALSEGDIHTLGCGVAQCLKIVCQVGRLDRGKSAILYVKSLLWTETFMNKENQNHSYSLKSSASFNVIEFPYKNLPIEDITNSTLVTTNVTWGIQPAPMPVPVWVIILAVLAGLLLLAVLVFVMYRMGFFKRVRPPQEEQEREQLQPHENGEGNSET
T6 sequence (P05106 27-788): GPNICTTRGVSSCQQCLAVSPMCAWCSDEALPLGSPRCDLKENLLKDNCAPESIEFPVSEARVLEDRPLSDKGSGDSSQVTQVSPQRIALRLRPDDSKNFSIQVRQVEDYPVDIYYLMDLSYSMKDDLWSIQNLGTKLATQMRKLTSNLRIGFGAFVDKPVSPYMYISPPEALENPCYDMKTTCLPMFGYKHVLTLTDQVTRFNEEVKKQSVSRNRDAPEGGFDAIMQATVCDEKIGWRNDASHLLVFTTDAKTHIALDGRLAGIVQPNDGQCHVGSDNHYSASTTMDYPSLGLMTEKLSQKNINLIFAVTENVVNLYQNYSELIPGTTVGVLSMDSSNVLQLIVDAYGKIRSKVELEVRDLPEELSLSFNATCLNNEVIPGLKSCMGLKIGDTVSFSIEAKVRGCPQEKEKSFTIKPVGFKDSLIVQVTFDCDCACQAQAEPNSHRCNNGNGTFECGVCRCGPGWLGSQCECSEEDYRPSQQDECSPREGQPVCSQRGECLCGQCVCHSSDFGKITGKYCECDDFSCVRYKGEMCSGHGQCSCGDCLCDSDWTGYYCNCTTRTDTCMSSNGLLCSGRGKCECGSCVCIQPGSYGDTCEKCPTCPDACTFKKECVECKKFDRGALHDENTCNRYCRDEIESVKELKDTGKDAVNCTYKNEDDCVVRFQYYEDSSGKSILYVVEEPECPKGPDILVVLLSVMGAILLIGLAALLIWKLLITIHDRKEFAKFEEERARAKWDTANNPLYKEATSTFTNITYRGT
Method: as §1, §2

αIIbβ3, αvβ3, α5β1 = test: Panel of RGD-selective integrin assays (platelet aggregation and cell adhesion); type: cell-based; conditions: range over the panel (Table 1); read-out: concentrations of potent inhibition of αIIbβ3-dependent platelet aggregation and αIIbβ3-, αvβ3-, α5β1-dependent cell adhesion
Method: as §2, §3

α6β1 = target: T7, α6β1 (Homo sapiens, UniProt P05556+P23229); test: K562 (α6+) cell adhesion to laminin; type: cell-based
T7 construct: expressed in transfected cells; host or cells: K562 transfected with α6
T7 sequence (P23229 24-938 limits assumed): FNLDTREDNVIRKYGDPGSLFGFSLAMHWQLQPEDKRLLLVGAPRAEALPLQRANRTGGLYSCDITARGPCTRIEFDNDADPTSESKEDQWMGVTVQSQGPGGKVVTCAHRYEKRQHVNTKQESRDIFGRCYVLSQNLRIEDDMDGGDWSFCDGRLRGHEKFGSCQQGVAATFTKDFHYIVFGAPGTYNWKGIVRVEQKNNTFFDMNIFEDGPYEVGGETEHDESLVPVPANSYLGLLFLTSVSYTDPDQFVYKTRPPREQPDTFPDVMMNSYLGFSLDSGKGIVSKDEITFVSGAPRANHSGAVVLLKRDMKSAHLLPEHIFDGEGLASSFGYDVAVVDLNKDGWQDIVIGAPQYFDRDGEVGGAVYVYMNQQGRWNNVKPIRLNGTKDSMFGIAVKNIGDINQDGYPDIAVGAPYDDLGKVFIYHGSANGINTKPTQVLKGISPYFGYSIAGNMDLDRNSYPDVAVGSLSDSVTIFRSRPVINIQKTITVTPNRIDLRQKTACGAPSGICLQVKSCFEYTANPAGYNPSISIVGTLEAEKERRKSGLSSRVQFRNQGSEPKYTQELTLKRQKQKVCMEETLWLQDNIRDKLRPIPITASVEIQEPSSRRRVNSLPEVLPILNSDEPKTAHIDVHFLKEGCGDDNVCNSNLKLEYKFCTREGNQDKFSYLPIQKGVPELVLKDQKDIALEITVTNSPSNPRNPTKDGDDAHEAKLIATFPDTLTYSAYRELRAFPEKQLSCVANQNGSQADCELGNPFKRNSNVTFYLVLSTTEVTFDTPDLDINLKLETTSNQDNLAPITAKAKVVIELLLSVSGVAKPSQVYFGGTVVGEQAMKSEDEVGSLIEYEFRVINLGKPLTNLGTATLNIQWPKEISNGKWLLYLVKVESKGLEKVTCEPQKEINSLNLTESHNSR
T7 sequence (P23229 942-1130 partner limits assumed): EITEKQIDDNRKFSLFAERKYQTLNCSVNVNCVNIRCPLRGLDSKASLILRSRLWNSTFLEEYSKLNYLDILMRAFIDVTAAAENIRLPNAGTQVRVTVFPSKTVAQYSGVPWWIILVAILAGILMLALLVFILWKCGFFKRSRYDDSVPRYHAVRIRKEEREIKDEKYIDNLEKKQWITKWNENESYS
T7 sequence (P05556 21-798): as the sequence (P05556 21-798) above
Method: as §1, §2

Jurkat cells = test: Adhesion of Jurkat cells to immobilized EC3; type: cell-based; conditions: 1 mM
Method: as §1
The adhesion study was performed using CMFDA-labeled Jurkat cells in the absence or presence 1 mM GRGDSP or GRGESP, or 10 μg/ml HP 2/1. Competition between EC3 and HP2/1 was also confirmed in cell suspension using FACS analysis. […] The experiment was performed using flow cytometry. […] The samples were fixed by addition of 1% paraformaldehyde before measurement of fluorescence intensity.

MV3 cells = conditions: immune deficient mice; cited from earlier work
αIIbβ3 [7] = target: T4, αIIbβ3; design: endogenous in cells; host or cells: platelets in platelet rich plasma; conditions: after reduction and ethylpyridylethylation; Calvete et al.; cited from earlier work
α4β1 (VLA-4) integrin = conditions: rabbit cardiac allografts; cited from earlier work

Q: What does the source list for `CSCC[C@@H]1NC(=O)[C@H](C)NC(=O)[C@H](CCCNC(=N)N)NC(=O)[C@H](CCCCN)NC(=O)[C@@H](N)CSSC[C@@H](C(=O)O)NC(=O)[C@H](Cc2ccc(O)cc2)NC(=O)[C@H](CC(=O)O)NC(=O)[C@H](CC(N)=O)NC(=O)[C@H](CC(C)C)NC(=O)CNC(=O)[C@H](CC(=O)O)NC(=O)[C@H](CC(C)C)NC1=O` (H-CKRAMLDGLNDYC-OH; disulfide 1-13)?
A: IC50 (α4β1 [1]): 1000 µM; activity relative to MLDG in molar ratio (α4β1 [1]; Jurkat cells / VCAM-1): five fold more active

Q: With CKRAMLA^7GLNDYC as the compound, how does the “inhibition of Jurkat cell adhesion to immobilized VCAM-1 (in words)” value (α4β1 [1]) read?
A: no significant activity

Q: For “Echistatin (ECESGPCCRNCKFLKEGTICKRARGDDMDDYCNGKTCDCPRNPHKGPAT) [reference compound]”, which IC50 (α4β1 [1]; Jurkat cells, ligand VCAM-1, read-out: IC50, cell adhesion) is on record?
A: > 10 µM

Q: What about the IC50 (α4β7) of the same compound?
A: > 10 µM

Q: And the IC50 (α4β1 [2])?
A: > 10 µM

Q: And the IC50 (αIIbβ3 [3])?
A: 0.05 µM

Q: And the IC50 (αIIbβ3 [4])?
A: 0.13 µM

Q: And the “activity in α4 integrin cell adhesion assays” value (α4β1 and α4β7 integrins)?
A: no detectable activity

Q: And the IC50 (α4β1 [5])?
A: > 10 µM

Q: And the “Number of Islets, Infiltration Score ++” value ([6]; ++ = ⅓ of the islet infiltrated, of 27 (echistatin) or 29 (EC-3) islets, nine weeks i.p.)?
A: 10

Q: What about the “Number of Islets, Infiltration Score +++” value ([6]; +++ = ½ or more of the islet infiltrated, of 27 (echistatin) or 29 (EC-3) islets, nine weeks i.p.) of the same compound?
A: 10

Q: What about the “Number of Animals without infiltration” value ([6]; NOD mice, i.p. three times per week for nine weeks, echistatin 1 μg/mouse, EC-3 3 μg/mouse, 10 animals per group) of the same compound?
A: 0

Q: What about the “effect on lymphocyte infiltration in pancreatic islets of NOD mice (in words)” value ([6]; echistatin 1 μg/mouse, EC-3 3 μg/mouse) of the same compound?
A: inactive

Q: And the “effect on lymphocyte infiltration in pancreatic islets of NOD mice (in words)” value ([6]; echistatin 1 μg/mouse, EC-3 3 μg/mouse, listed as echistatin)?
A: ineffective

Q: What about the “Number of Islets, Infiltration Score −” value ([6]; − = no infiltration, of 27 (echistatin) or 29 (EC-3) islets, nine weeks i.p.) of the same compound?
A: 5

Q: What about the “inhibition of binding of K562 cells to immobilized fibronectin” value (α5β1) of the same compound?
A: inhibited binding

Q: What about the IC50 (αvβ3) of the same compound?
A: 0.05 µM

Q: What about the IC50 (αIIbβ3, αvβ3, α5β1) of the same compound?
A: 0.02 to 0.13 µM

Q: What about the IC50 (α6β1; K562 (α6+) cells, α6β1, ligand Lm) of the same compound?
A: > 10 µM

Q: What about the “inhibition of adhesion to laminin of K562 cells transfected with α6” value (α6β1; at concentration 10 μM) of the same compound?
A: neither echistatin nor EC3 inhibited

Q: Which “effect on adhesion of Jurkat cells to immobilized EC3” value (Jurkat cells) does the source give for GRGDSP here?
A: not effective

Q: With RGDS [reference compound] as the compound, how does the “inhibition of Jurkat cell adhesion to immobilized VCAM-1” value (α4β1 [1]; at this concentration (5 mM)) read?
A: inactive

Q: With “eristostatin: short disintegrin, potent inhibitor of αIIbβ3, SEQ ID NO:8 (QEEPCATGPCCRRCKFKRAGKVCRVARGDWNDDYCTGKSCDCPRNPWNG; ends and bridges not checked; cysteine pairing not given here; listed as Eristocophis macmahonii)” as the compound, how does the “effect on human melanoma cell (MV3) metastases” value (MV3 cells) read?
A: inhibits human melanoma cell (MV3) metastases

Q: Which “decrease of ability to inhibit ADP-induced platelet aggregation” value (αIIbβ3 [7]) does the source give for “flavoridin: medium size disintegrin, SEQ ID NO:10” here?
A: ~40 fold

Q: With “phenylacetic acid-Leu-Asp-Phe-d-Pro-amide [CS-1 peptide]” as the compound, how does the “effect on accelerated coronary arteriopathy” value (α4β1 (VLA-4) integrin) read?
A: reduces accelerated coronary arteriopathy
